The values below come from patent US10174000B2, “Bicyclic-fused heteroaryl or aryl compounds as IRAK4 modulators” (PFIZER INC., priority 2015, dated 2019).

The target of assay [1] is inactive, unphosphorylated (0-phos), human IRAK4 FL (Full Length) (Homo sapiens (Human), UniProt Q9NWZ3). The assay is described as follows: IRAK4 Enzymatic DELFIA Assay, Protocol B. It counts as biochemical. To be noted: 600 μM ATP (KM), full-length recombinant human IRAK4. As to the method: IRAK4 Enzymatic DELFIA Assay, Protocol B.
The test compound is solubilized in DMSO to a stock concentration of 30 mM. The dose response plates were prepared with a 4 mM primary compound concentration, serialized in DMSO and spotted (1 μL) into 384-well polypropylene plates as before.
20 uL of 20 mM HEPES pH=7.5, 5 mM MgCl2, 0.0025% Brij-35, 600 μM ATP, and 100 nM ERM-biotinylated peptide (AGAGRDKYKTLRQIR) was added to start the reaction, which was run for 90 minutes at RT and stopped by the addition of 20 μL 0.3M EDTA.
(§1) 50 μL of the reaction mixture was transferred to a streptavidin-coated detection plate (DELFIA streptavidin coated plates, 384-well, white plates, Perkin-Elmer Life Sciences) and incubated for 30 minutes at RT. The plates were washed 4× with 75 μL per well of PBS containing 0.05% Tween-20. Plates were then incubated with 50 μL per well of antibody cocktail of Anti-pERM antibody at 0.125 μg/mL (Cell Signaling Technology), plus Anti-Rabbit IgG EuN1 at 0.25 μg/ml (Perkin-Elmer Life Sciences) in a solution of 10 mM MOPS pH=7.5, 150 mM NaCl, 0.05% Tween-20, 0.02% NaN3, 1% BSA, 0.1% Gelatin for 45 minutes. The plates were then washed as before. 50 μL per well of DELFIA Enhancement Solution (Perkin-Elmer Life Sciences) was added to the plate and incubated for 15 minutes at RT prior to being read on an Envision Model 2104 multi-label reader using a 340 nm excitation wavelength and a […] emission wavelength for detection.

In assay [2] the target is human IRAK4 FL (Full Length), phosphorylated (Homo sapiens (Human), UniProt Q9NWZ3). The assay is described as follows: IRAK4 Enzymatic DELFIA Assay, Protocol A. It is filed as biochemical. To be noted: 600 μM ATP (KM); full-length phosphorylated recombinant human IRAK4. As to the method: IRAK4 Enzymatic DELFIA Assay, Protocol A.
This is an in vitro assay to measure IRAK4 enzymatic activity utilizing the DELFIA (Dissociation-Enhanced Lanthanide Fluorescent Immunoassay, Perkin-Elmer) platform, with the human IRAK4 FL (Full Length) construct to characterize IRAK4 inhibitor and control compounds at 600 μM ATP (KM). The final amount of enzyme in the assay is 0.1 nM IRAK4 FL, final concentration of substrate is 50 nM, and final concentration of DMSO is 2.5%.
The test compound was solubilized in DMSO to a stock concentration of 30 mM. The dose response plates were prepared with a 4 mM primary compound concentration (40-fold multiple of the final in-assay concentration), and diluted in DMSO in a four-fold series for a total of 11 data points. 1 μL of the compound dilution plate is spotted into ultra-clear polypropylene, 384-well, U-bottom plates (Corning Life Sciences).
To begin the assay, 19 μL of reaction mixture containing 20 mM HEPES pH=7.5, 5 mM MgCl2, 0.0025% Brij-35, 600 μM ATP, 0.21 nM Full-length phosphorylated recombinant human IRAK4 (GenBank ID AF445802) are aliquoted into the polypropylene, 384-well, U-bottom plates containing 1 μL of test compound, mixed briefly and incubated for 20 minutes at room temperature (RT). Then, 20 μL of 20 mM HEPES pH=7.5, 5 mM MgCl2, 0.0025% Brij-35, 600 μM ATP, and 100 nM ERM-biotinylated peptide (AGAGRDKYKTLRQIR) is added to start the reaction. The reaction is incubated for 60 minutes at RT and stopped by the addition of 20 μL 0.3M EDTA.
as §1

A value given as a limit tells only on which side of the number the result lay.

Sequence of inactive, unphosphorylated (0-phos), human IRAK4 FL (Full Length) (Q9NWZ3 whole entry): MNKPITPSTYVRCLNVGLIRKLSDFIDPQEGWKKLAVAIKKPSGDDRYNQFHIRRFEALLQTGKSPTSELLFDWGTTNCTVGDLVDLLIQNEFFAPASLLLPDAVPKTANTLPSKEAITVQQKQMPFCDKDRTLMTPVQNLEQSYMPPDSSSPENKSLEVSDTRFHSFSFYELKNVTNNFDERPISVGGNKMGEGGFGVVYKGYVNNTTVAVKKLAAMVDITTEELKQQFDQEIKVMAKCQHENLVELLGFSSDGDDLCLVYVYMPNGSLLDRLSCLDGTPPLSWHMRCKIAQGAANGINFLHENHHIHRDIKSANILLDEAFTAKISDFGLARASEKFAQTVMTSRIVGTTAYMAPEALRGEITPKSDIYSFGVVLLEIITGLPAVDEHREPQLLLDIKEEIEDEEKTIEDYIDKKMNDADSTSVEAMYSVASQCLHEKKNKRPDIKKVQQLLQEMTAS
Sequence of human IRAK4 FL (Full Length), phosphorylated (Q9NWZ3 whole entry): as above

One may read the IC50 as the concentration that gives 50% inhibition. For `CC[C@@H]1[C@H](F)C(=O)N[C@@H]1COc1cccc2cc(C(N)=O)c(OC)nc12` [Example 1, 8-{[(2S,3S,4S)-3-Ethyl-4-fluoro-5-oxopyrrolidin-2-yl]methoxy}-2-methoxyquinoline-3-carboxamide], the IC50 in assay [1] was found to be 2 nM; in assay [2], 7.5 nM.

Consider `CC(C)Oc1cc2c(OC[C@@H]3CCC(=O)N3)ncc(-c3ccn(C)n3)c2cc1C(N)=O` [Example 4, 4-(1-Methyl-1H-pyrazol-3-yl)-1-{[(2S)-5-oxopyrrolidin-2-yl]methoxy}-7-(propan-2-yloxy)isoquinoline-6-carboxamide], for which the IC50 was determined as 10 nM in assay [1] and 112 nM in assay [2].

With `CC(C)Oc1cc2c(OC[C@@H]3NC(=O)[C@@H](F)C34CC4)nccc2cc1C(N)=O` [Example 16, 1-(((4R,7S)-7-fluoro-6-oxo-5-azaspiro[2.4]heptan-4-yl)methoxy)-7-isopropoxyisoquinoline-6-carboxamide], the IC50 in assay [1] is 390 nM; in assay [2] it was 4500 nM.

Regarding `CC[C@@H]1CC(=O)N[C@@H]1COc1ncc(NS(=O)(=O)c2c[nH]cn2)c2cc(C(N)=O)c(OC(C)C)cc12` [Example 12, 1-{[(2S,3R)-3-Ethyl-5-oxopyrrolidin-2-yl]methoxy}-4-[(1H-imidazol-4-ylsulfonyl)amino]-7-(propan-2-yloxy)isoquinoline-6-carboxamide], the values for the IC50 in assay [1] and in assay [2] were 6500 nM and more than 100000 nM, respectively.

For `COc1cc2c(OC[C@@]34C[C@@H]3CC(=O)N4)nccc2cc1C(N)=O` [Example 31, 7-methoxy-1-{[(1R,5R)-3-oxo-2-azabicyclo[3.1.0]hex-1-yl]methoxy}isoquinoline-6-carboxamide], the IC50 in assay [1] is 1200 nM; in assay [2], more than 100000 nM.

As for `CC(C)Oc1cc2c(OC[C@H]3NC(=O)[C@H](F)C34CC4)nccc2cc1C(N)=O` [Example 17, 1-(((4S,7R)-7-fluoro-6-oxo-5-azaspiro[2.4]heptan-4-yl)methoxy)-7-isopropoxyisoquinoline-6-carboxamide], the IC50 in assay [1] was 1.2 nM; in assay [2], 20.7 nM.

`CC[C@@H]1CC(=O)N[C@@H]1COc1ncc(NS(=O)(=O)c2cccnc2)c2cc(C(N)=O)c(OC(C)C)cc12` [Example 11, 1-{[(2S,3R)-3-Ethyl-5-oxopyrrolidin-2-yl]methoxy}-7-(propan-2-yloxy)-4-[(pyridin-3-ylsulfonyl)amino]isoquinoline-6-carboxamide]: the IC50 is 1300 nM in assay [1] and more than 100000 nM in assay [2].

For `CC[C@@H]1[C@H](F)C(=O)N[C@@H]1COc1cncc2cc(C(N)=O)c(OC)cc12` [Example 26, 4-(((2S,3S,4S)-3-ethyl-4-fluoro-5-oxopyrrolidin-2-yl)methoxy)-6-methoxyisoquinoline-7-carboxamide], the IC50 in assay [1] came to 0.3 nM; in assay [2] it was 7.7 nM.

As for `CC[C@@H]1[C@H](F)C(=O)N[C@@H]1COc1ncc(N)c2cc(C(N)=O)c(OC)cc12` [Example 15, 4-Amino-1-{[(2S,3S,4S)-3-ethyl-4-fluoro-5-oxopyrrolidin-2-yl]methoxy}-7-methoxyisoquinoline-6-carboxamide], the IC50 was found to be 0.5 nM in assay [1] and 2.2 nM in assay [2].

Take `Cc1c[nH]c(-c2cnc(OC[C@@H]3CCC(=O)N3)c3cc(OC(C)C)c(C(N)=O)cc23)n1` [Example 3, 4-(4-Methyl-1H-imidazol-2-yl)-1-{[(2S)-5-oxopyrrolidin-2-yl]methoxy}-7-(propan-2-yloxy)isoquinoline-6-carboxamide]: the IC50 in assay [1] came to 230 nM; in assay [2], 2900 nM.
